Key:
[1] = tested on: Human immunodeficiency virus 1; test: Selectivity ratio of IC50 for 32 week drug adapted HIV1 HXB-2D harboring reverse transcriptase K65R mutant gene to IC50 for HIV1 HXB-2D harboring reverse transcriptase K65R mutant gene; assay type: functional
[2] = tested on: Human immunodeficiency virus 1; test: Antiviral activity against wild type HIV1 HXB-2D infected in human cord blood mononuclear cells; assay type: functional, organism-based; conditions: Human immunodeficiency virus 1, HXB-2D
[3] = tested on: Human immunodeficiency virus 1; test: Selectivity ratio of IC50 for 32 week drug adapted HIV1 HXB-2D harboring wild type reverse transcriptase to IC50 for HIV1 HXB-2D harboring wild type reverse transcriptase; assay type: functional
[4] = tested on: Human immunodeficiency virus 1; test: Selectivity ratio of IC50 for 20 week drug adapted HIV1 HXB-2D harboring reverse transcriptase M184V, M41L, T215Y mutant gene to IC50 for HIV1 HXB-2D harboring reverse transcriptase M184V, M41L, T215Y mutant gene; assay type: functional
[5] = tested on: Human immunodeficiency virus 1; test: Antiviral activity against HIV1 HXB-2D harboring reverse transcriptase M184V, M41L and T215Y mutant gene infected in human cord blood mononuclear cells; assay type: functional, organism-based; conditions: Human immunodeficiency virus 1, HXB-2D
[6] = tested on: Human immunodeficiency virus 1; test: Selectivity ratio of IC50 for HIV1 HXB-2D harboring reverse transcriptase M184V mutant gene to IC50 for wild type HIV1 HXB-2D infected in human cord blood mononuclear cells; assay type: functional
[7] = tested on: Human immunodeficiency virus 1; test: Selectivity ratio of IC50 for 8 week drug adapted HIV1 HXB-2D harboring reverse transcriptase M184V, M41L, T215Y mutant gene to IC50 for HIV1 HXB-2D harboring reverse transcriptase M184V, M41L, T215Y mutant gene; assay type: functional
[8] = tested on: Human immunodeficiency virus 1; test: Selectivity ratio of IC50 for 51 week drug adapted HIV1 HXB-2D harboring reverse transcriptase M184V, K65R mutant gene to IC50 for HIV1 HXB-2D harboring wild type reverse transcriptase; assay type: functional
[9] = tested on: Human immunodeficiency virus 1; test: Selectivity ratio of IC50 for 48 week drug adapted HIV1 HXB-2D harboring reverse transcriptase M184V mutant gene to IC50 for HIV1 HXB-2D harboring wild type reverse transcriptase; assay type: functional
[10] = tested on: Human immunodeficiency virus 1; test: Selectivity ratio of IC50 for HIV1 HXB-2D harboring reverse transcriptase M184V, M41L and T215Y mutant gene to IC50 for wild type HIV1 HXB-2D infected in human cord blood mononuclear cells; assay type: functional
[11] = tested on: Human immunodeficiency virus 1; test: Selectivity ratio of IC50 for 17 week drug adapted HIV1 HXB-2D harboring reverse transcriptase S68S/G mutant gene to IC50 for HIV1 HXB-2D harboring reverse transcriptase K65R mutant gene; assay type: functional
[12] = tested on: Human immunodeficiency virus 1; test: Selectivity ratio of IC50 for 38 week drug adapted HIV1 HXB-2D harboring reverse transcriptase S68S/G mutant gene to IC50 for HIV1 HXB-2D harboring reverse transcriptase K65R mutant gene; assay type: functional
[13] = tested on: Human immunodeficiency virus 1; test: Selectivity ratio of IC50 for 8 week drug adapted HIV1 HXB-2D harboring reverse transcriptase D237N mutant gene to IC50 for HIV1 HXB-2D harboring wild type reverse transcriptase; assay type: functional
[14] = tested on: Human immunodeficiency virus 1; test: Selectivity ratio of IC50 for HIV1 HXB-2D harboring reverse transcriptase K65R mutant gene to IC50 for wild type HIV1 HXB-2D infected in human cord blood mononuclear cells; assay type: functional
[15] = tested on: Human immunodeficiency virus 1; test: Selectivity ratio of IC50 for 17 week drug adapted HIV1 HXB-2D harboring reverse transcriptase D237N mutant gene to IC50 for HIV1 HXB-2D harboring wild type reverse transcriptase; assay type: functional
[16] = tested on: Human immunodeficiency virus 1; test: Selectivity ratio of IC50 for 32 week drug adapted HIV1 HXB-2D harboring reverse transcriptase V101I/V, D177N, E194G mutant gene to IC50 for HIV1 HXB-2D harboring reverse transcriptase M184V mutant gene; assay type: functional
[17] = tested on: Human immunodeficiency virus 1; test: Selectivity ratio of IC50 for 8 week drug adapted HIV1 HXB-2D harboring reverse transcriptase F87L/F mutant gene to IC50 for HIV1 HXB-2D harboring reverse transcriptase M184V mutant gene; assay type: functional
[18] = tested on: Human immunodeficiency virus 1; test: Selectivity ratio of IC50 for 38 week drug adapted HIV1 HXB-2D harboring reverse transcriptase I50T/II, D237N/D mutant gene to IC50 for HIV1 HXB-2D harboring wild type reverse transcriptase; assay type: functional
[19] = tested on: Human immunodeficiency virus 1; test: Antiviral activity against HIV1 HXB-2D harboring reverse transcriptase M184V mutant gene infected in human cord blood mononuclear cells; assay type: functional, organism-based; conditions: Human immunodeficiency virus 1, HXB-2D
[20] = tested on: Human immunodeficiency virus 1; test: Antiviral activity against HIV1 HXB-2D harboring reverse transcriptase K65R mutant gene infected in human cord blood mononuclear cells; assay type: functional, organism-based; conditions: Human immunodeficiency virus 1, HXB-2D
[21] = tested on: Human immunodeficiency virus 1; test: Selectivity ratio of IC50 for 8 week drug adapted HIV1 HXB-2D harboring reverse transcriptase K65R mutant gene to IC50 for HIV1 HXB-2D harboring reverse transcriptase K65R mutant gene; assay type: functional
[22] = tested on: Human immunodeficiency virus 1; test: Selectivity ratio of IC50 for 17 week drug adapted HIV1 HXB-2D harboring reverse transcriptase D177N/D, E194E/G mutant gene to IC50 for HIV1 HXB-2D harboring reverse transcriptase M184V mutant gene; assay type: functional
[23] = tested on: Human immunodeficiency virus 1; test: Selectivity ratio of IC50 for 51 week drug adapted HIV1 HXB-2D harboring reverse transcriptase M184V/M, K65R mutant gene to IC50 for HIV1 HXB-2D harboring wild type reverse transcriptase; assay type: functional
[24] = tested on: Human immunodeficiency virus 1; test: Selectivity ratio of IC50 for 28 week drug adapted HIV1 HXB-2D harboring reverse transcriptase M184V, M41L, T215Y mutant gene to IC50 for HIV1 HXB-2D harboring reverse transcriptase M184V, M41L, T215Y mutant gene; assay type: functional
[25] = tested on: Human immunodeficiency virus 1; test: Selectivity ratio of IC50 for 38 week drug adapted HIV1 HXB-2D harboring reverse transcriptase V101I/V, D177N, E194G mutant gene to IC50 for HIV1 HXB-2D harboring reverse transcriptase M184V mutant gene; assay type: functional

Nc1ccn([C@H]2CO[C@@H](CO)S2)c(=O)n1 [APRICITABINE]
fold change (FC) [1]: 2.5
IC50 [2]: 7.54 µM
fold change (FC) [3]: 4
fold change (FC) [4]: 3.7
IC50 [5]: 13.4 µM
fold change (FC) [6]: 2.37
fold change (FC) [7]: 0.7
fold change (FC) [8]: 8
fold change (FC) [9]: 8
fold change (FC) [10]: 1.77
fold change (FC) [11]: 0.5
fold change (FC) [12]: 3
fold change (FC) [13]: 4
fold change (FC) [14]: 2.69
fold change (FC) [15]: 1.3
fold change (FC) [16]: 3.4
fold change (FC) [17]: 1.7
fold change (FC) [18]: 8
IC50 [19]: 17.9 µM
IC50 [20]: 20.3 µM
fold change (FC) [21]: 0.5
fold change (FC) [22]: 1.1
fold change (FC) [23]: 13.3
fold change (FC) [24]: 3.7
fold change (FC) [25]: 3.4

Reference: ChEMBL document CHEMBL1629678, “Apricitabine does not select additional drug resistance mutations in tissue culture in human immunodeficiency virus type 1 variants containing K65R, M184V, or M184V plus thymidine analogue mutations” (Antimicrob Agents Chemother, 2009)
